# Laboratory results taken from PubChem BioAssay (NCI).
#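 At the GI50, growth is halved. The concentration for full growth arrest is given as TGI.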
# Experiments:
# Experiment in all cases: inhibition of tumour cell growth, NCI panel, 384-well format
# [1] = system: T-47D breast
# [2] = system: HT29 colon
# [3] = system: NCI-H522 lung
# [4] = system: HL-60(TB) leukemia
# [5] = system: HOP-62 NSCLC
# [6] = system: NCI-H226 lung
# [7] = system: SN12C renal
# [8] = system: SNB-75 CNS
# [9] = system: TK-10 renal
# [10] = system: MALME-3M melanoma
# [11] = system: MCF7 breast
# [12] = system: HOP-92 NSCLC
# [13] = system: CAKI-1 renal
# [14] = system: EKVX NSCLC
# [15] = system: PC-3 prostate
# [16] = system: NCI/ADR-RES ovarian
# [17] = system: COLO 205 colon
# [18] = system: BT-549 breast
# [19] = system: MOLT-4 leukemia
# [20] = system: OVCAR-4 ovarian
# [21] = system: SK-MEL-28 melanoma
# [22] = system: DU-145 prostate
# [23] = system: OVCAR-8 ovarian
# [24] = system: NCI-H322M lung
# [25] = system: LOX IMVI melanoma
# [26] = system: RPMI-8226 leukemia
# [27] = system: MDA-MB-468 breast
# [28] = system: NCI-H460 NSCLC
structure (smiles),measurement,setting,value
CNC(=O)c1cc(Oc2ccc(NC(=O)Nc3cc(C(C)(C)C)nn3-c3ccc4ncccc4c3)c(F)c2)ccn1,GI50,[1],853 nM
same,TGI,[1],4820 nM
same,GI50,[2],520 nM
same,TGI,[2],> 100000 nM
same,GI50,[3],1450 nM
same,TGI,[3],3010 nM
same,GI50,[4],724 nM
same,TGI,[4],1530 nM
same,GI50,[5],1740 nM
same,TGI,[5],3970 nM
same,GI50,[6],109 nM
same,TGI,[6],> 100000 nM
same,GI50,[7],679 nM
same,TGI,[7],4180 nM
same,GI50,[8],1070 nM
same,TGI,[8],2280 nM
same,GI50,[9],1210 nM
same,TGI,[9],4400 nM
same,GI50,[10],34.3 nM
same,TGI,[10],308 nM
same,GI50,[11],1590 nM
same,TGI,[11],> 100000 nM
same,GI50,[12],605 nM
same,TGI,[12],> 100000 nM
same,GI50,[13],359 nM
same,TGI,[13],> 100000 nM
same,GI50,[14],1490 nM
same,TGI,[14],4280 nM
same,GI50,[15],3160 nM
same,TGI,[15],9470 nM
same,GI50,[16],2530 nM
same,TGI,[16],6340 nM
same,GI50,[17],391 nM
same,TGI,[17],2810 nM
same,GI50,[18],632 nM
same,TGI,[18],1880 nM
same,GI50,[19],1540 nM
same,TGI,[19],2940 nM
same,GI50,[20],2180 nM
same,TGI,[20],4990 nM
same,GI50,[21],310 nM
same,TGI,[21],1200 nM
same,GI50,[22],2220 nM
same,TGI,[22],8640 nM
same,GI50,[23],1740 nM
same,TGI,[23],4300 nM
same,GI50,[24],2580 nM
same,TGI,[24],9500 nM
same,GI50,[25],281 nM
same,TGI,[25],961 nM
same,GI50,[26],1910 nM
same,TGI,[26],3440 nM
same,GI50,[27],2820 nM
same,TGI,[27],4370 nM
same,GI50,[28],1160 nM
same,TGI,[28],4380 nM
